Counter-ions that a name gives are not always drawn.
tested on: KK mice (4-5 months old) suffering from diabetes mellitus; assay: Hypoglycemic activity: blood sugar lowering in diabetic KK mice fed the test compound; type: in vivo; conditions: 4 per group, powdered feed containing 0.01% of test compound for 3 days, plasma glucose vs control group
Source text: Blood was collected from the tail veins of KK mice (4-5 months old) suffering from diabetes mellitus, and it was subjected to an assay of the blood sugar level. The mice were divided in groups (4 mice per group) as to have equal blood sugar levels on average in each group. Powdered mouse feed (F-1, Funabashi Farm) containing 0.01% of a test compound was given the mice for 3 days. Those mice groups fed with the test compound were referred to as “drug treated group”. Further, those groups fed with powdered feed free of the test compound were referred to as “control group”. Blood was collected from the tail veins of the mice 3 days later and was subjected to a centrifuge, and the glucose concentration in the resultant plasma was assayed with a glucose analyzer (Glucoloader, A&T Company). The average blood sugar lowering rate was calculated from the following formula:
Blood sugar lowering rate (%)=(Average blood sugar level in control group−Average blood sugar level in drug treated group)×100/Blood sugar level in control group

SMILES | Blood sugar lowering rate (%)
Cn1c(COc2ccc(CC(OCc3ccc(F)cc3)C(=O)O)cc2)nc2ccc(Oc3ccc(C45CC6CC(CC(C6)C4)C5)cc3)cc21 (centres unmarked) [Example 2, 3-[4-[6-(4-Adamantan-1-ylphenoxy)-1-methyl-1H-benzimidazol-2-ylmethoxy]phenyl]-2-(4-fluorobenzyloxy)propionic acid] | 58.5%
Cn1c(COc2ccc(CC(OCc3ccc(F)cc3)C(=O)O)cc2)nc2ccc(Sc3cc(C(C)(C)C)c(O)c(C(C)(C)C)c3)cc21 (centres unmarked) [Example 4, 3-[4-[6-(3,5-Di-t-butyl-4-hydroxyphenylthio)-1-methyl-1H-benzimidazol-2-ylmethoxy]phenyl]-2-(4-fluorobenzyloxy)propionic acid] | 40.8%
CCOC(Cc1ccc(OCc2nc3ccc(OC)cc3n2C)cc1)C(=O)O.Cl (centres unmarked) [Example 9, 2-Ethoxy-3-[4-(1-methyl-6-methoxy-1H-benzimidazol-2-ylmethoxy)phenyl]propionic acid hydrochloride] | 48.4%
COC(=O)[C@H](Cc1ccc(OCc2nc3ccc(OC)cc3n2C)cc1)Nc1ccccc1C(=O)c1ccccc1.Cl [Example 16, N-(2-Benzoylphenyl)-4-(6-methoxy-1-methyl-1H-benzimidazol-2-ylmethoxy)phenylalanine methyl ester hydrochloride] | 32.1%
Cc1cc(Oc2ccc3nc(COc4ccc(C[C@H](Nc5ccccc5C(=O)c5ccccc5)C(=O)O)cc4)n(C)c3c2)cc(C)c1N [Example 20, 4-[6-(4Amino-3 ,5dimethylphenoxy)-1-methyl-1H-benzimidazol-2-ylmethoxy]-N-(2-benzoylphenyl)phenylalanine dihydrochloride] | 40.0%

From patent US6596751B2, “α-substituted carboxylic acid derivatives” (Sankyo Company Limited, priority 1999, dated 2003)
